The results in this text go back to ChEMBL document CHEMBL1147219, “Hyperatomarin, an antibacterial prenylated phloroglucinol from Hypericumatomarium ssp. degenii” (2003).

For orientation: MIC means the lowest concentration that inhibits growth of the organism. A higher MIC goes with a less susceptible organism.

Format in all cases: functional
For one test, the system named is Bacillus. As to the kind of experiment: Antibacterial activity against Bacillus IP 5832 after 24 hrs by agar dilution method. For orientation: In agar dilution, organisms are placed on agar that contains the substance at set levels.
Another test deals with Staphylococcus aureus. As to the kind of experiment: Antibacterial activity against Staphylococcus aureus ATCC 25923 after 24 hrs by agar dilution method. The settings on record: ATCC 25923, 24 h.
In the next test the test system is Micrococcus luteus. As to the kind of experiment: Antibacterial activity against Micrococcus luteus ATCC 4698 after 24 hrs by agar dilution method. The settings on record: ATCC 4698, 24 h.
Another test has as its system Bacillus subtilis. In words: Antibacterial activity against Bacillus subtilis ATCC 6633 after 24 hrs by agar dilution method. The settings on record: ATCC 6633, 24 h.

Each structure is given as a SMILES string. ≈ marks a conversion by molar mass, not a printed value.

For `CC[C@H]1OC(=O)[C@H](C)[C@@H](O[C@H]2C[C@@](C)(OC)[C@@H](O)[C@H](C)O2)[C@H](C)[C@@H](O[C@@H]2O[C@H](C)C[C@H](N(C)C)[C@H]2O)[C@](C)(O)C[C@@H](C)C(=O)[C@H](C)[C@@H](O)[C@]1(C)O` [ERYTHROMYCIN], the MIC against Bacillus came to 0.39 µg/mL (≈ 0.531 µM); in the test with Staphylococcus aureus, 0.2 µg/mL (≈ 0.273 µM); in the test on Micrococcus luteus, 0.2 µg/mL (≈ 0.273 µM); against Bacillus subtilis, 0.39 µg/mL (≈ 0.531 µM).

Consider `CC(C)=CCC[C@@]1(C)[C@H](CC=C(C)C)C[C@@H]2C(=O)C(C(=O)C(C)C)=C(O)[C@H]1C2=O` [HYPERATOMARIN], for which the MIC against Bacillus stood at 1.56 µg/mL (≈ 3.89 µM); in the test on Staphylococcus aureus, 1.56 µg/mL (≈ 3.89 µM); against Micrococcus luteus, 1.56 µg/mL (≈ 3.89 µM); with Bacillus subtilis, 3.12 µg/mL (≈ 7.79 µM).
